The results in this text go back to patent US20220388964A1 (HiberCell, Inc., priority 2019, published 2022).

The structures appear in SMILES notation.

This assay concerns the target GCN2 (Homo sapiens, UniProt Q9P2K8). The assay can be described thus: TR-FRET biochemical assay for inhibition of GCN2 (Example 106, for Example 1-4BB).

Chain of GCN2 (Q9P2K8 whole entry): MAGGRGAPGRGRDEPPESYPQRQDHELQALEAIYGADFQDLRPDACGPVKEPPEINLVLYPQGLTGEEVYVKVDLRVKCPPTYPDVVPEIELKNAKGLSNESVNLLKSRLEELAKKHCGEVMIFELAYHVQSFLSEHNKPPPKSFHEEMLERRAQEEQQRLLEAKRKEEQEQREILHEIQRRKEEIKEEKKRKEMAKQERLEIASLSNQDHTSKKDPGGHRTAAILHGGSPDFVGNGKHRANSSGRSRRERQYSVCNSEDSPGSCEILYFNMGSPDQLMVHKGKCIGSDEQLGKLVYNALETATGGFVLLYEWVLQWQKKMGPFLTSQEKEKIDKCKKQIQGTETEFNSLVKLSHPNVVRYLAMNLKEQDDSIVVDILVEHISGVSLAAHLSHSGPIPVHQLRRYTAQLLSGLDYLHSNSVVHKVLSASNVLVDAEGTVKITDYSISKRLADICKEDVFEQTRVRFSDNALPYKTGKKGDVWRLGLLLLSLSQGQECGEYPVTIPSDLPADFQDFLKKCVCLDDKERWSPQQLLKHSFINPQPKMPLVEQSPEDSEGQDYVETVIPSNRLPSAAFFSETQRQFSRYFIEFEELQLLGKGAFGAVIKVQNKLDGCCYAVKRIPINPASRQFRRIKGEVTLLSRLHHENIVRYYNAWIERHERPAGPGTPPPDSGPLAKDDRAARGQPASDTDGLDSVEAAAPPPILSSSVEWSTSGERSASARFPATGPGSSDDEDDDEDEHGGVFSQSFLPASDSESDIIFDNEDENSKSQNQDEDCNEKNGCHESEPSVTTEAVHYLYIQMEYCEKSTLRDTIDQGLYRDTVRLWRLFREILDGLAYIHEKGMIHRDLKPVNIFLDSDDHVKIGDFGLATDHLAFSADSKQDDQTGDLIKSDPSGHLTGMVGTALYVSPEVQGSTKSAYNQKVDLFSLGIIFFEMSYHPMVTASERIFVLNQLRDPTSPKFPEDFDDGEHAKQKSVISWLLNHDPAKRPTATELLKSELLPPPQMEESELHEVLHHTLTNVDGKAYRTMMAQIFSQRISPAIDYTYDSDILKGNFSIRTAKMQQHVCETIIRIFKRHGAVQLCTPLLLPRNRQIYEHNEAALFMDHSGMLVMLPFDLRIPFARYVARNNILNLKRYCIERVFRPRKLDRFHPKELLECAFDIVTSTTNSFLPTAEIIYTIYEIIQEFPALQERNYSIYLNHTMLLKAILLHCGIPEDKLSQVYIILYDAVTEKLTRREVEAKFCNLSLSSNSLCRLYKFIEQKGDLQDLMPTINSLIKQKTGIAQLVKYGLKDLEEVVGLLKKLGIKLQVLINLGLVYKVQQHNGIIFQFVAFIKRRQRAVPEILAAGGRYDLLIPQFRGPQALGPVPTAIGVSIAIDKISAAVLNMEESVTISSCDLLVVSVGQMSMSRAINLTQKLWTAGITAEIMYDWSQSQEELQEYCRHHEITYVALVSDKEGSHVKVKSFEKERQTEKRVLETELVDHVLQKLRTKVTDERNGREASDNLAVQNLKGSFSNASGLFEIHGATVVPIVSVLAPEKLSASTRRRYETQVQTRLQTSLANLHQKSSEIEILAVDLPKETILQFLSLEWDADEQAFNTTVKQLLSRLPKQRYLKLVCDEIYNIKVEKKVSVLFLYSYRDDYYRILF

As to `COc1ncc(F)cc1S(=O)(=O)Nc1cccc(-c2ccc3c(C4CCC(=O)N4)n[nH]c3c2F)c1F` (stereo not shown) [Example 12, 5-Fluoro-N-(2-fluoro-3-(7-fluoro-3-(5-oxopyrrolidin-2-yl)-1H-indazol-6-yl)phenyl)-2-methoxypyridine-3-sulfonamide], the IC50 (usually the concentration that inhibits the measured activity by half) (Table 9) is greater than 10000 nM. On the same count and under the same terms, for `Cc1ncc(F)cc1S(=O)(=O)Nc1cccc(-c2ccc3c(-c4ncc[nH]4)n[nH]c3c2Cl)c1F` [Example 3N, N-(3-(7-chloro-3-(1H-imidazol-2-yl)-1H-indazol-6-yl)-2-fluorophenyl)-5-fluoro-2-methylpyridine-3-sulfonamide] the value was 500 to 2500 nM. As for `O=S(=O)(Nc1ccc(F)c(-c2ccc3c(-c4ncc[nH]4)n[nH]c3c2F)c1F)c1cccnc1Cl` [Example 2BM, 2-chloro-N-(2,4-difluoro-3-(7-fluoro-3-(1H-imidazol-2-yl)-1H-indazol-6-yl)phenyl)-pyridine-3-sulfonamide], under “Table 8”, the IC50 was less than 500 nM. In the case of `Cc1c(CO)cc(F)cc1S(=O)(=O)Nc1ccc(F)c(-c2ccc3c(C(=O)NCCCO)n[nH]c3c2F)c1F` [Example 4H], for the setting “Table 9”, the IC50 is less than 500 nM.

On to `CN(C)CCCNC(=O)c1n[nH]c2c(F)c(-c3c(F)ccc(NS(=O)(=O)c4cc(F)cc(CO)c4F)c3F)ccc12` [Example 4P], for which the IC50 (Table 9) was less than 500 nM. The same measure, in the same setting: for `COc1ncc(F)cc1S(=O)(=O)Nc1cc(C#N)cc(-c2ccc3c(-c4ncc[nH]4)n[nH]c3c2F)c1F` [Example 3CB, N-(5-cyano-2-fluoro-3-(7-fluoro-3-(1H-imidazol-2-yl)-1H-indazol-6-yl)phenyl)-5-fluoro-2-methoxypyridine-3-sulfonamide] the value was greater than 10000 nM; for `COc1ncc(F)cc1S(=O)(=O)Nc1cccc(-c2ccc3c(-c4ncc[nH]4)n[nH]c3c2F)c1F` [Example 3V, N-(2-fluoro-3-(7-fluoro-3-(1H-imidazol-2-yl)-1H-indazol-6-yl)phenyl)-5-fluoro-2-methoxypyridine-3-sulfonamide], less than 500 nM.

Where the note is “Table 9”, `COc1ncc(Cl)cc1S(=O)(=O)Nc1cc(F)cc(-c2ccc3c(C(=O)N[C@H]4CCN(C)C4)n[nH]c3c2F)c1F` [Example 3BM, 6-(3-((5-chloro-2-methoxy-pyridine)-3-sulfonamido)-2,5-difluorophenyl)-7-fluoro-N-((S)-1-methylpyrrolidin-3-yl)-1H-indazole-3-carboxamide] yielded an IC50 of less than 500 nM. Take `Cc1noc(C)c1S(=O)(=O)Nc1ccc(F)c(-c2ccc3c(-c4ncc[nH]4)n[nH]c3c2F)c1F` [Example 2AZ, N-(2,4-difluoro-3-(7-fluoro-3-(1H-imidazol-2-yl)-1H-indazol-6-yl)phenyl)-3,5-dimethylisoxazole-4-sulfonamide]: the IC50 (Table 8) is less than 500 nM.

In turn, `Cn1nncc1S(=O)(=O)Nc1ccc(F)c(-c2ccc3c(-c4ncc[nH]4)n[nH]c3c2F)c1F` [Example 2X, N-(2,4-difluoro-3-(7-fluoro-3-(1H-imidazol-2-yl)-1H-indazol-6-yl)phenyl)-1-methyl-1H-1,2,3-triazole-5-sulfonamide] had a half-inhibitory concentration (IC50) (Table 8) of 2500 to 10000 nM. Where the note is “Table 8”, `COc1ncc(Cl)cc1S(=O)(=O)Nc1cc(C)nc(-c2ccc3c(-c4ncc[nH]4)n[nH]c3c2F)c1F` [Example 2AO, 5-chloro-N-(3-fluoro-2-(7-fluoro-3-(1H-imidazol-2-yl)-1H-indazol-6-yl)-6-methyl-pyridin-4-yl)-2-methoxy-pyridine-3-sulfonamide] returned an IC50 of 2500 to 10000 nM. In the case of `COc1ncc(Cl)cc1S(=O)(=O)Nc1cccc(-c2cc3[nH]nc(C(N)=O)c3cn2)c1F` [Example 3BD, 6-(3-((5-chloro-2-methoxy-pyridine)-3-sulfonamido)-2-fluorophenyl)-1H-pyrazolo-[4,3-c]pyridine-3-carboxamide], the IC50 (Table 9) is less than 500 nM. Turning to `COc1ccc(S(=O)(=O)Nc2ccc(F)c(-c3ccc4c(-c5ncc[nH]5)n[nH]c4c3F)c2F)cc1` [Example 2B, N-(2,4-difluoro-3-(7-fluoro-3-(1H-imidazol-2-yl)-1H-indazol-6-yl)phenyl)-4-methoxybenzene-sulfonamide], the IC50 (Table 8) lay within 500 to 2500 nM.

As to `Cc1ncc(F)cc1S(=O)(=O)Nc1ccc(F)c(-c2ccc3c(C(N)=O)n[nH]c3c2F)c1F` [Example 3BA, 6-(2,6-difluoro-3-((5-fluoro-2-methylpyridine)-3-sulfon-amido)phenyl)-7-fluoro-1H-indazole-3-carboxamide], the IC50 (Table 9) is less than 500 nM. On to `Cc1nn(C)cc1S(=O)(=O)Nc1ccc(F)c(-c2ccc3c(-c4ncc[nH]4)n[nH]c3c2F)c1F` [Example 2I, N-(2,4-difluoro-3-(7-fluoro-3-(1H-imidazol-2-yl)-1H-indazol-6-yl)phenyl)-1,3-dimethyl-1H-pyrazole-4-sulfonamide], for which the IC50 (Table 8) is 500 to 2500 nM. Take `COc1ncc(F)cc1S(=O)(=O)Nc1cccc(-c2ccc3c(C(N)=O)n[nH]c3c2F)c1F` [Example 3AN, 7-fluoro-6-(2-fluoro-3-((5-fluoro-2-methoxypyridine)-3-sulfonamido)phenyl)-1H-indazole-3-carboxamide]: for the setting “Table 9”, the IC50 was less than 500 nM.

The compound `COc1ncc(F)cc1S(=O)(=O)Nc1ncc(F)c(-c2ccc3c(C(N)=O)n[nH]c3c2)c1F` [Example 3P, 6-(3,5-difluoro-2-((5-fluoro-2-methoxypyridine)-3-sulfonamido)pyridin-4-yl)-1H-indazole-3-carboxamide] displayed a half-inhibitory concentration (IC50) (Table 9) greater than 10000 nM. With `COc1ncc(Cl)cc1S(=O)(=O)Nc1ccnc(-c2ccc3c(-c4ncc[nH]4)n[nH]c3c2)c1F` [Example 2CB, N-(2-(3-(1H-imidazol-2-yl)-1H-indazol-6-yl)-3-fluoro-pyridin-4-yl)-5-chloro-2-methoxypyridinc-3-sulfonamide], the half-inhibitory concentration (IC50) (Table 8) was less than 500 nM. With `CC(C)c1cccc(S(=O)(=O)Nc2ccc(F)c(-c3ccc4c(-c5ncc[nH]5)n[nH]c4c3F)c2F)c1` [Example 2L, N-(2,4-difluoro-3-(7-fluoro-3-(1H-imidazol-2-yl)-1H-indazol-6-yl)phenyl)-3-isopropyl-benzenesulfonamide], under “Table 8”, the IC50 was in the range of 2500 to 10000 nM. Still for that read-out and setting: in the case of `O=S(=O)(Nc1ccc(F)c(-c2ccc3c(-c4ncc[nH]4)n[nH]c3c2F)c1F)c1cccc(F)c1F` [Example 2AG, N-(2,4-difluoro-3-(7-fluoro-3-(1H-imidazol-2-yl)-1H-indazol-6-yl)phenyl)-2,3-difluorobenzenesulfonamide] it was less than 500 nM. On to `COc1ncc(F)cc1S(=O)(=O)Nc1ccc(F)c(-c2ccc3c(C(=O)N[C@@H]4CCN(C)C4)n[nH]c3c2F)c1F` [Example 3AB, 6-(3-((5-fluoro-2-methoxy-pyridine)-3-sulfonamido)-2,6-difluorophenyl)-7-fluoro-N-((R)-1-methylpyrrolidin-3-yl)-1H-indazole-3-carboxamide], for which the IC50 (Table 9) was less than 500 nM. For `COc1ccccc1S(=O)(=O)Nc1ccc(F)c(-c2ccc3c(-c4ncc[nH]4)n[nH]c3c2F)c1F` [Example 2BF, N-(2,4-difluoro-3-(7-fIuoro-3-(1H-imidazol-2-yl)-1H-indazol-6-yl)phenyl)-2-methoxybenzenesulfonamide], the IC50 (Table 8) fell in the range of 500 to 2500 nM. As for `COc1ncc(Cl)cc1S(=O)(=O)Nc1ccc(F)c(-c2ccc3c(C(=O)N[C@@H]4CCN(C)C4)n[nH]c3c2F)c1F` [Example 3AD, 6-(3-((5-chloro-2-methoxy-pyridine)-3-sulfonamido)-2,6-difluorophenyl)-7-fluoro-N-((R)-1-methylpyrrolidin-3-yl)-1H-indazole-3-carboxamide], the IC50 (Table 9) is less than 500 nM. On the same count and under the same terms, for `COc1ncc(F)cc1S(=O)(=O)Nc1cccc(-c2ccc3c(C(=O)NC[C@H](O)CO)n[nH]c3c2F)c1F` [Example 3AY, 6-(2-fluoro-3-((5-fluoro-2-methoxypyridine)-3-sulfonamido)phenyl)-N-((S)-2,3-dihydroxypropyl)-7-fluoro-1H-indazole-3-carboxamide] the value was 500 to 2500 nM. Still for that read-out and setting: in the case of `COc1ncc(Cl)cc1S(=O)(=O)Nc1ccc(F)c(-c2ccc3c(C(=O)Nc4cn[nH]c4)n[nH]c3c2F)c1F` [Example 3CQ, 6-(3-((5-chloro-2-methoxy-pyridine)-3-sulfonamido)-2,6-difluorophenyl)-7-fluoro-N-(1H-pyrazol-4-yl)-1H-indazole-3-carboxamide] it was less than 500 nM. For `COc1ncc(F)cc1S(=O)(=O)Nc1ccc(F)c(-c2ccc3c(C(=O)N[C@H]4CCN(C)C4)n[nH]c3c2F)c1F` [Example 3AC, 6-(3-((5-fluoro-2-methoxy-pyridine)-3-sulfonamido)-2,6-difluorophenyl)-7-fluoro-N-((S)-1-methylpyrrolidin-3-yl)-1H-indazole-3-carboxamide], the IC50 (Table 9) lay within 500 to 2500 nM. `COc1ncc(Cl)cc1S(=O)(=O)Nc1ccc(F)c(-c2ccc3c(C(=O)NC[C@H]4CCCN4C)n[nH]c3c2F)c1F` [Example 3D, 6-(3-((5-chloro-2-methoxy-pyridine)-3-sulfonamido)-2,6-difluorophenyl)-7-fluoro-N-(((R)-1-methylpyrrolidin-2-yl)methyl)-1H-indazole-3-carboxamide] gave an IC50 (Table 9) of less than 500 nM. On to `COc1ncc(Cl)cc1S(=O)(=O)Nc1ccc(F)c(-c2ccc3c(C(=O)NCCO)n[nH]c3c2F)c1F` [Example 2CH, 6-(3-((5-chloro-2-methoxy-pyridine)-3-sulfonamido)-2,6-difluorophenyl)-7-fluoro-N-(2-hydroxyethyl)-1H-indazole-3-carboxamide], for which, where the note is “Table 8”, the IC50 is less than 500 nM. Take `COc1ncc(F)cc1S(=O)(=O)Nc1nccc(-c2ccc3c(C(N)=O)n[nH]c3c2F)c1F` [Example 3Q, 6-(3-fluoro-2-((5-fluoro-2-methoxypyridine)-3-sulfonamido)pyridin-4-yl)-7-fluoro-1H-indazole-3-carboxamide]: the IC50 (Table 9) is 500 to 2500 nM. Turning to `O=S(=O)(Nc1ccc(F)c(-c2ccc3c(-c4ncc[nH]4)n[nH]c3c2F)c1F)c1c(F)cccc1F` [Example 2BG, N-(2,4-difluoro-3-(7-fluoro-3-(1H-imidazol-2-yl)-1H-indazol-6-yl)phenyl)-2,6-difluorobenzenesulfonamide], the IC50 (Table 8) was less than 500 nM.

Compound `Cc1oncc1S(=O)(=O)Nc1ccc(F)c(-c2ccc3c(-c4ncc[nH]4)n[nH]c3c2F)c1F` [Example 2AE, N-(2,4-difluoro-3-(7-fluoro-3-(1H-imidazol-2-yl)-1H-indazol-6-yl)phenyl)-5-methylisoxazole-4-sulfonamide] gave an IC50 (Table 8) greater than 10000 nM.
